Data from PubChem BioAssay AID2060492 (Molecular Pharmacology Branch, DTP, NCI, 2025).

Test system: 695427-040-R-J1-PDC complex spheroids, viability percent T/C
Test: Anticancer human tumor 695427-040-R-J1-PDC patient-derived colon adenocarcinoma cell line growth inhibition [GQUAD]
Conditions: for IC50: curve of first compound; for viability, T/C: stronger effect = lower value
Summary of the method: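 Tumor cells were grown as complex spheroids with HUVEC endothelial cells and mesenchymal stem cells as stroma. G-quadruplex stabilizers were combined with targeted agents over half-log dilutions from near the clinical Cmax, or from 10 microM.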

[1] = second compound 0.0316 µM, first compound 0.000999 µM
[2] = second compound 0.0316 µM, first compound 0.00316 µM
[3] = second compound 0.0316 µM, first compound 0.00999 µM
[4] = second compound 0.0316 µM, first compound 0.0316 µM
[5] = second compound 0.0316 µM, first compound 0.0999 µM
[6] = second compound 0.0316 µM, first compound 0.316 µM
[7] = second compound 0.1 µM, first compound 0.000999 µM
[8] = second compound 0.1 µM, first compound 0.00316 µM
[9] = second compound 0.1 µM, first compound 0.00999 µM
[10] = second compound 0.1 µM, first compound 0.0316 µM
[11] = second compound 0.1 µM, first compound 0.0999 µM
[12] = second compound 0.1 µM, first compound 0.316 µM
[13] = second compound 0.316 µM, first compound 0.000999 µM
[14] = second compound 0.316 µM, first compound 0.00316 µM
[15] = second compound 0.316 µM, first compound 0.00999 µM
[16] = second compound 0.316 µM, first compound 0.0316 µM
[17] = second compound 0.316 µM, first compound 0.0999 µM
[18] = second compound 0.316 µM, first compound 0.316 µM
[19] = second compound 1 µM, first compound 0.000999 µM
[20] = second compound 1 µM, first compound 0.00316 µM
[21] = second compound 1 µM, first compound 0.00999 µM
[22] = second compound 1 µM, first compound 0.0316 µM
[23] = second compound 1 µM, first compound 0.0999 µM
[24] = second compound 1 µM, first compound 0.316 µM
[25] = second compound 3.16 µM, first compound 0.000999 µM
[26] = second compound 3.16 µM, first compound 0.00316 µM
[27] = second compound 3.16 µM, first compound 0.00999 µM
[28] = second compound 3.16 µM, first compound 0.0316 µM
[29] = second compound 3.16 µM, first compound 0.0999 µM
[30] = second compound 3.16 µM, first compound 0.316 µM
[31] = second compound 10 µM, first compound 0.000999 µM
[32] = second compound 10 µM, first compound 0.00316 µM
[33] = second compound 10 µM, first compound 0.00999 µM
[34] = second compound 10 µM, first compound 0.0316 µM
[35] = second compound 10 µM, first compound 0.0999 µM
[36] = second compound 10 µM, first compound 0.316 µM
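Further: spheroids exposed to compounds for seven days before readout.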

For `CC[C@@]1(O)C(=O)OCc2c1cc1n(c2=O)Cc2cc3c(CN(C)C)c(O)ccc3nc2-1` + Cc1cnc(CNC(=O)c2c(=O)c3ccc(N4CCCN(C)CC4)nc3n3c2sc2ccccc23)cn1, the IC50 (second compound 0.0316 µM) was > 316 nM, the IC50 (second compound 0.1 µM) was > 316 nM and the IC50 (second compound 0.316 µM) was > 316 nM. For the same molecule, the IC50 (second compound 1 µM) was > 316 nM, the IC50 (second compound 3.16 µM) was < 0.999 nM and the IC50 (second compound 10 µM) was < 0.999 nM. The viability, T/C [1] was 92.5%, the viability, T/C [2] was 82.5% and the viability, T/C [3] was 89.7%. For the same molecule, the viability, T/C [4] was 76%, the viability, T/C [5] was 82.8% and the viability, T/C [6] was 79.2%. For the same molecule, the viability, T/C [7] was 95.5%, the viability, T/C [8] was 74.4% and the viability, T/C [9] was 90.8%. For the same molecule, the viability, T/C [10] was 67.7%, the viability, T/C [11] was 91.6% and the viability, T/C [12] was 77.5%. The viability, T/C [13] was 73.2%, the viability, T/C [14] was 66.6% and the viability, T/C [15] was 69%. The viability, T/C [16] was 61.1%, the viability, T/C [17] was 80.5% and the viability, T/C [18] was 65.6%. For the same molecule, the viability, T/C [19] was 56.4%, the viability, T/C [20] was 69.8% and the viability, T/C [21] was 58.3%. For the same molecule, the viability, T/C [22] was 65.7%, the viability, T/C [23] was 70.9% and the viability, T/C [24] was 63.8%. It also gave a viability, T/C [25] of 45.8%, a viability, T/C [26] of 56.8% and a viability, T/C [27] of 54.8%. The viability, T/C [28] was 53.5%, the viability, T/C [29] was 65.7% and the viability, T/C [30] was 48.4%. For the same molecule, the viability, T/C [31] was 28.6%, the viability, T/C [32] was 51.3% and the viability, T/C [33] was 54%. It also gave a viability, T/C [34] of 49.4%, a viability, T/C [35] of 48.8% and a viability, T/C [36] of 40.2%.

`CCc1c2c(nc3ccc(O)cc13)-c1cc3c(c(=O)n1C2)COC(=O)[C@]3(O)CC` + Cc1cnc(CNC(=O)c2c(=O)c3ccc(N4CCCN(C)CC4)nc3n3c2sc2ccccc23)cn1 gave an IC50 (second compound 0.0316 µM) of 81.3 nM, an IC50 (second compound 0.1 µM) of 49 nM and an IC50 (second compound 0.316 µM) of 27.3 nM. For the same molecule, the IC50 (second compound 1 µM) was 26.1 nM, the IC50 (second compound 3.16 µM) was 3.02 nM and the IC50 (second compound 10 µM) was < 0.999 nM. For the same molecule, the viability, T/C [1] was 82.6%, the viability, T/C [2] was 75.7% and the viability, T/C [3] was 81.1%. The viability, T/C [4] was 57.9%, the viability, T/C [5] was 50.1% and the viability, T/C [6] was 34.5%. It also gave a viability, T/C [7] of 91.4%, a viability, T/C [8] of 68.6% and a viability, T/C [9] of 73.2%. For the same molecule, the viability, T/C [10] was 47.5%, the viability, T/C [11] was 47.5% and the viability, T/C [12] was 33.8%. The viability, T/C [13] was 85.3%, the viability, T/C [14] was 57% and the viability, T/C [15] was 63.6%. For the same molecule, the viability, T/C [16] was 49.8%, the viability, T/C [17] was 43.2% and the viability, T/C [18] was 31.1%. The viability, T/C [19] was 66.1%, the viability, T/C [20] was 63.6% and the viability, T/C [21] was 53.1%. The viability, T/C [22] was 47.7%, the viability, T/C [23] was 40.4% and the viability, T/C [24] was 19.1%. For the same molecule, the viability, T/C [25] was 55.1%, the viability, T/C [26] was 47.3% and the viability, T/C [27] was 44.8%. For the same molecule, the viability, T/C [28] was 38.9%, the viability, T/C [29] was 31.2% and the viability, T/C [30] was 7.33%. For the same molecule, the viability, T/C [31] was 39.7%, the viability, T/C [32] was 33.7% and the viability, T/C [33] was 40.2%. For the same molecule, the viability, T/C [34] was 37.7%, the viability, T/C [35] was 9.89% and the viability, T/C [36] was 0.52%.
